Results taken from paper PMC6848382, “Characterization of the Bioactivity and Mechanism of Bactenecin Derivatives Against Food-Pathogens” (Frontiers in Microbiology, 2019).
≈ marks a conversion by molar mass, not a printed value. Where two headings read alike, the source gives them in different places. Residues, ends and D or L forms follow the SMILES beside them. No end group written: not given here.

Columns and labels:
EA. hy 926 cells = test: Cytotoxicity (CCK-8); assay type: cell-based, human; conditions: CCK-8, 24 h; for EA. hy 926 cell viability: peptide concentration 128 μM
Protocol: The cytotoxicity of the peptides was tested on the EA. hy 926 cell line by using the Cell Counting Kit-8 (CCK-8, Dojindo, Japan) as described in a previous study ([Sánchez-Gómez et al., 2015]). The EA. Hy 926 cells cultured in the logarithmic growth -phase was then diluted with PBS to a single cell suspension. A 100 μL cell suspension (2 × 10^5 cells) was added to 96-well plates and cultured in an incubator with a 5% CO2 atmosphere at 37°C. The cell culture medium was removed, and the two-fold serial dilutions of peptides prepared using DMEM with 5% FBS were added to the 96-well plates. After 24 h, 100 μL DMEM with 10% CCK-8 was added to the 96-well plates and then cultured for 4 h. The absorbance was measured at 492 nm by using a microplate reader. DMEM served as a positive control and cells mixed with DMEM without peptides as a negative control. Melittin was employed as a control peptide.

[1] = system: Staphylococcus aureus ATCC25923; assay type: cell-based
Protocol: (§1) The antimicrobial activity of each peptide against food-pathogens was characterized by the minimum inhibitory concentration (MIC) ([Ma et al., 2013]). A logarithmic growth-phase culture of bacteria (1 × 10^6 CFU/mL) was mixed with peptide solutions (final concentration ranging from 0 μM to 256 μM) in 96-well plates. After the 96-well plates were incubated for 24 h at 37°C, optical dispersion (OD) was measured using a microplate reader (Bio-Rad, ıHercules, CA, United States) at 630 nm. […] The broth with bacteria cells was used as the negative control, and un-inoculated broth was used as a positive control. The tests were performed in triplicate using three replicates for each experiment.

[2] = system: Escherichia coli ATCC25922; assay type: cell-based; conditions: for MIC, CaCl2 / MIC, Control / MIC, KCl / MIC, MgCl2 / MIC, NH4Cl / MIC, NaCl: ATCC25922, 24 h
Protocol: To evaluate the effect of different physiological conditions on the stability of peptides, we determined the salt stability, thermal stability, and enzymatic stability as described in a previous study ([Dong, 2013]; [Sun et al., 2018]). Escherichia coli ATCC25922 grown in the logarithmic phase (1 × 10^6 CFU/mL) was exposed to each peptide at different salt concentrations (150 mM NaCl, 4.5 mM KCl, 6 μM NH4Cl, 1 mM MgCl2, 8 μM ZnCl2, 2 mM CaCl2, and 4 μM FeCl3). The peptides were treated for 1 h at 100°C to test for thermal stability. The peptides were treated with trypsin, pepsin, papain and protease k at a concentration of 1 mg/mL for 1 h at 37°C to test for enzyme stability. The control group consisted of untreated peptides. The subsequent assay was consistent with the MIC assay.

[3] = system: Salmonella typhimurium C77-31; assay type: cell-based
Protocol: as §1

[4] = system: Listeria monocytogenes CMCC54004; assay type: cell-based
Protocol: as §1

[5] = system: Escherichia coli ATCC25922; assay type: cell-based; conditions: ATCC25922, 24 h
Protocol: as §1

Escherichia coli UB1005 = assay type: cell-based
Protocol: as §1

Bacillus cereus CMCC6303 = assay type: cell-based
Protocol: as §1

[6] = system: Salmonella enteric-subspenterica CMCC47020; conditions: 1 × 10^6 CFU/mL, 24 h, 37°C, triplicate
Protocol: as §1

[7] = system: Salmonella typhimurium ATCC14028; assay type: cell-based
Protocol: as §1

[8] = system: Salmonella enteric-subspenterica CMCC50071; conditions: 1 × 10^6 CFU/mL, 24 h, 37°C, triplicate
Protocol: as §1

[9] = system: Salmonella pullorum C79-13; assay type: cell-based; conditions: 24 h
Protocol: as §1

[10] = system: Staphylococcus aureus CMCC26074; assay type: cell-based
Protocol: as §1

[11] = system: 12 typical food-pathogens; conditions: over the 12 food-pathogens of Table 3
Protocol: as §1
The selectivity index (SI), calculated as the ratio of MHC to GM, was used a comparison parameter for the safety and efficacy of peptides.

[12] = system: Cronobacter sakazakii ATCC29544; assay type: cell-based
Protocol: as §1

[13] = Staphylococcus aureus ATCC25923, 1 × 10^6 CFU/mL, 24 h, 37°C, triplicate
[14] = E. coli ATCC25922, peptides treated with trypsin 1 mg/mL, 1 h, 37°C
[15] = Staphylococcus aureus CMCC26074, 1 × 10^6 CFU/mL, 24 h, 37°C, triplicate

Row | Molecule | MIC ([1]; ATCC25923, 24 h) [µM] | MIC, Heat ([2]; ATCC25922, 1 h) [µM] | MIC, Papain ([2]; ATCC25922, 1 h) [µM] | MIC, Pepsin ([2]; ATCC25922, 1 h) [µM] | MIC, Proteinase k ([2]; ATCC25922, 1 h) [µM] | MIC, CaCl2 [2] [µM] | MIC, Control [2] [µM] | MIC, KCl [2] [µM] | MIC, MgCl2 [2] [µM] | MIC, NH4Cl [2] [µM] | MIC, NaCl [2] [µM] | EA. hy 926 cell viability (EA. hy 926 cells) [%] | MIC ([3]; murium C77-31, 24 h) [µM] | MIC ([4]; CMCC54004, 24 h) [µM] | MIC [5] [µM] | MIC (Escherichia coli UB1005; UB1005, 24 h) [µM] | MIC (Bacillus cereus CMCC6303; CMCC6303, 24 h) [µM] | MIC [9] [µM] | GM (geometric mean of MICs) [11] [µM] | MIC ([12]; ATCC29544, 24 h) [µM] | also measured
1 | melittin [reference compound] | – | – | – | – | – | – | – | – | – | – | – | – | – | – | – | – | – | – | – | – | Cytotoxicity (EA. hy 926 cells; at 16 μM): 100%
2 | RWRRIVVIRVRR-NH2 [W2R3V10R11] | 256 | 4 | 2 | 32 | 8 | 8 | 2 | 2 | 4 | 2 | 4 | 80 | 32 | 2 | 2 | 16 | 64 | 32 | 24.0 | 16 | MIC, Trypsin ([2]; ATCC25922, 1 h): >256 µM; MIC [6]: 128 µM; MIC ([7]; ATCC14028, 24 h): 32 µM; MIC [8]: 8 µM; MIC ([10]; CMCC26074, 24 h): 64 µM
3 | CC[C@H](C)[C@@H]1NC(=O)[C@H](CCCNC(=N)N)NC(=O)[C@@H](NC(=O)[C@H](CC(C)C)NC(=O)[C@@H](N)CCCNC(=N)N)CSSC[C@@H](C(=O)N[C@@H](CCCNC(=N)N)C(N)=O)NC(=O)[C@H](C(C)C)NC(=O)[C@H](CCCNC(=N)N)NC(=O)[C@H]([C@@H](C)CC)NC(=O)[C@H](C(C)C)NC(=O)[C@H](C(C)C)NC1=O [L2C3V10C11, bactenecin] (HELM PEPTIDE1{R.L.C.R.I.V.V.I.R.V.C.R.[am]}$PEPTIDE1,PEPTIDE1,3:R3-11:R3$$$V2.0) | >256 | 8 (≈ 11.9 µg/mL) | 16 (≈ 23.7 µg/mL) | 16 (≈ 23.7 µg/mL) | 32 (≈ 47.5 µg/mL) | 8 (≈ 11.9 µg/mL) | 4 (≈ 5.93 µg/mL) | 4 (≈ 5.93 µg/mL) | 4 (≈ 5.93 µg/mL) | 4 (≈ 5.93 µg/mL) | 16 (≈ 23.7 µg/mL) | – | >256 | – | 4 (≈ 5.93 µg/mL) | – | 64 (≈ 94.9 µg/mL) | >256 | – | 256 (≈ 380 µg/mL) | MIC, Trypsin ([2]; ATCC25922, 1 h): 64 µM (≈ 94.9 µg/mL); MIC ([10]; CMCC26074, 24 h): >256 µM
4 | RKWRIVVIRVRR-NH2 [K2W3V10R11] | 128 | 8 | 2 | 128 | 256 | 8 | 2 | 2 | 4 | 2 | 8 | 80 | 32 | 2 | 2 | 8 | 16 | 8 | 19.0 | 32 | MIC, Trypsin ([2]; ATCC25922, 1 h): >256 µM; MIC [6]: 64 µM; MIC ([7]; ATCC14028, 24 h): 32 µM; MIC [8]: 8 µM; MIC ([10]; CMCC26074, 24 h): 256 µM
5 | RKRRIVVIRRKR-NH2 [K2R3R10K11] | – | 16 | 8 | 32 | 8 | 16 | 8 | 8 | 8 | 8 | 32 | 85 | – | 32 | 8 | – | 128 | – | 191.8 | – | MIC [1, 13]: >256 µM; MIC, Trypsin [2, 14]: >256 µM; MIC ([3]; Salmonella typhimurium C77-31, 1 × 10^6 CFU/mL, 24 h, 37°C, triplicate): >256 µM; MIC (Escherichia coli UB1005; Escherichia coli UB1005, 1 × 10^6 CFU/mL, 24 h, 37°C, triplicate): 256 µM; MIC ([7]; ATCC14028, 24 h): 128 µM; MIC ([9]; Salmonella pullorum C79-13, 1 × 10^6 CFU/mL, 37°C, triplicate): 256 µM; MIC [10, 15]: >256 µM; MIC ([12]; Cronobacter sakazakii ATCC29544, 1 × 10^6 CFU/mL, 24 h, 37°C, triplicate): >256 µM
6 | RRFRIVVIRWLR-NH2 [R2F3W10L11] | 256 | 32 | 8 | 16 | 128 | 8 | 2 | 8 | 2 | 4 | 16 | 71 | 64 | 16 | 2 | 16 | 32 | 32 | 32.0 | 32 | MIC, Trypsin ([2]; ATCC25922, 1 h): >256 µM; MIC [6]: 64 µM; MIC ([7]; ATCC14028, 24 h): 32 µM; MIC [8]: 8 µM; MIC ([10]; CMCC26074, 24 h): 256 µM
7 | RWKRIVVIRKRR-NH2 [W2K3K10R11] | – | 16 | 4 | 16 | 8 | 4 | 4 | 4 | 4 | 4 | 8 | 83 | 256 | – | 4 | 256 | – | 256 | 170.0 | 256 | MIC [1, 13]: >256 µM; MIC, Trypsin [2, 14]: >256 µM; MIC ([4]; Listeria monocytogenes CMCC54004, 1 × 10^6 CFU/mL, 24 h, 37°C, triplicate): 128 µM; MIC (Bacillus cereus CMCC6303; Bacillus cereus CMCC6303, 1 × 10^6 CFU/mL, 24 h, 37°C, triplicate): 128 µM; MIC ([7]; Salmonella typhimurium ATCC14028, 1 × 10^6 CFU/mL, 24 h, 37°C, triplicate): 128 µM; MIC [10, 15]: >256 µM
8 | RRWRIVVIRWRR-NH2 [R2W3W10R11] | 128 | 8 | 4 | 32 | 128 | 2 | 2 | 2 | 2 | 2 | 4 | 77 | 64 | 1 | 2 | 16 | 64 | 32 | 30.2 | 64 | MIC, Trypsin [2, 14]: >256 µM; MIC [6]: 256 µM; MIC ([7]; ATCC14028, 24 h): 64 µM; MIC [8]: 8 µM; MIC ([10]; CMCC26074, 24 h): 128 µM
